According to US11096865B2, “Preservative removal from eye drops” (TearClear Corp., priority 2019, dated 2021):

Experiment: 30 day drop test, API retention after dropper tip packed with OxPO
Format: physicochemical
Conditions: for API concentration in drops: tip packed with OxHDPE A-C 395, 125-250 μm, acid washed
Experimental: To 60.0 g of ultrapure water was added 0.090 g hydroxyethyl cellulose (Natrosol 250H) and the solution was stirred overnight to dissolve. Subsequently, 0.176 g sodium citrate dihydrate and 0.960 g mannitol were added and the mixture was stirred until completely dissolved. 1.37 g Dorzolamide Hydrochloride, 0.420 g Timolol Maleate and 0.045 g of a 10% aqueous solution of BAK were added and incorporated. The pH was adjusted to 5.65 with 0.01N NaOH solution. The final nominal concentrations are reported below.
An empty dropper tip equipped with a 25 μm filter at the tip exit was packed with approximately […] of OxPO and the backing filter was attached to retain the OxPO packing in place. The weight of the OxPO packing was recorded. The packed tip was then inserted into the neck of an 8 ml dropper bottle containing 5 ml of the API/BAK test solution.
5 ml of the formulation described above containing nominally 5.0 mg/ml Timolol, 20.0 mg/ml Dorzolamide and 75 μg/ml BAK was loaded into six eyedropper bottles packed with OxHDPE (A-C 395, 125-250 μm, acid washed) as described above. Drops were obtained from each bottle twice a day (AM and PM 8 hours apart) and analyzed by HPLC for API and BAK.

With `CC(C)(C)NC[C@H](O)COc1nsnc1N1CCOCC1` [Timolol] the “API concentration in drops” value (Day 1A) was 4.93 mg/mL, the “API concentration in drops” value (Day 1P) was 4.91 mg/mL and the “API concentration in drops” value (Day 2A) was 4.51 mg/mL. For the same molecule, the “API concentration in drops” value (Day 2P) was 4.64 mg/mL, the “API concentration in drops” value (Day 3A) was 4.60 mg/mL and the “API concentration in drops” value (Day 3P) was 4.65 mg/mL. The “API concentration in drops” value (Day 4A) was 4.59 mg/mL, the “API concentration in drops” value (Day 4P) was 4.72 mg/mL and the “API concentration in drops” value (Day 5A) was 4.68 mg/mL. The “API concentration in drops” value (Day 5P) was 4.78 mg/mL, the “API concentration in drops” value (Day 6A) was 4.76 mg/mL and the “API concentration in drops” value (Day 6P) was 4.90 mg/mL. For the same molecule, the “API concentration in drops” value (Day 7A) was 4.86 mg/mL, the “API concentration in drops” value (Day 7P) was 4.91 mg/mL and the “API concentration in drops” value (Day 8A) was 4.85 mg/mL. For the same molecule, the “API concentration in drops” value (Day 8P) was 4.89 mg/mL, the “API concentration in drops” value (Day 9A) was 4.84 mg/mL and the “API concentration in drops” value (Day 9P) was 4.87 mg/mL. The “API concentration in drops” value (Day 10A) was 4.89 mg/mL, the “API concentration in drops” value (Day 10P) was 4.90 mg/mL and the “API concentration in drops” value (Day 11A) was 4.89 mg/mL. For the same molecule, the “API concentration in drops” value (Day 11P) was 4.96 mg/mL, the “API concentration in drops” value (Day 12A) was 4.86 mg/mL and the “API concentration in drops” value (Day 12P) was 4.95 mg/mL. For the same molecule, the “API concentration in drops” value (Day 13A) was 4.89 mg/mL, the “API concentration in drops” value (Day 13P) was 4.93 mg/mL and the “API concentration in drops” value (Day 14A) was 4.86 mg/mL. The “API concentration in drops” value (Day 14P) was 4.97 mg/mL, the “API concentration in drops” value (Day 15A) was 4.87 mg/mL and the “API concentration in drops” value (Day 15P) was 4.93 mg/mL. The “API concentration in drops” value (Day 16A) was 4.90 mg/mL, the “API concentration in drops” value (Day 16P) was 5.01 mg/mL and the “API concentration in drops” value (Day 17A) was 4.90 mg/mL. For the same molecule, the “API concentration in drops” value (Day 17P) was 4.97 mg/mL, the “API concentration in drops” value (Day 18A) was 4.98 mg/mL and the “API concentration in drops” value (Day 18P) was 4.97 mg/mL. The “API concentration in drops” value (Day 19A) was 4.87 mg/mL, the “API concentration in drops” value (Day 19P) was 4.98 mg/mL and the “API concentration in drops” value (Day 20A) was 4.99 mg/mL. For the same molecule, the “API concentration in drops” value (Day 20P) was 5.02 mg/mL, the “API concentration in drops” value (Day 21A) was 4.92 mg/mL and the “API concentration in drops” value (Day 21P) was 4.95 mg/mL. For the same molecule, the “API concentration in drops” value (Day 22A) was 4.98 mg/mL, the “API concentration in drops” value (Day 22P) was 4.93 mg/mL and the “API concentration in drops” value (Day 23A) was 4.96 mg/mL. For the same molecule, the “API concentration in drops” value (Day 23P) was 4.97 mg/mL, the “API concentration in drops” value (Day 24A) was 4.94 mg/mL and the “API concentration in drops” value (Day 24P) was 4.96 mg/mL. The “API concentration in drops” value (Day 25A) was 4.90 mg/mL, the “API concentration in drops” value (Day 25P) was 4.93 mg/mL and the “API concentration in drops” value (Day 26A) was 4.97 mg/mL. For the same molecule, the “API concentration in drops” value (Day 26P) was 4.96 mg/mL, the “API concentration in drops” value (Day 27A) was 4.96 mg/mL and the “API concentration in drops” value (Day 27P) was 4.97 mg/mL. For the same molecule, the “API concentration in drops” value (Day 28A) was 4.93 mg/mL, the “API concentration in drops” value (Day 28P) was 4.95 mg/mL and the “API concentration in drops” value (Day 29A) was 4.90 mg/mL. The “API concentration in drops” value (Day 29P) was 4.93 mg/mL, the “API concentration in drops” value (Day 30A) was 4.98 mg/mL and the “API concentration in drops” value (Day 30P) was 4.97 mg/mL. For the same molecule, the API concentration (Initial formulation) was 5.04 (mg/ml).
